What was measured:
Test in all cases: Test B pre-/postemergence plant response
Type in all cases: in vivo
[1] = test system: large crabgrass (Digitaria sanguinalis)
Procedure, shortened: (§1)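 Seeds sown in loam–sand blend were treated preemergence, and plants at 2–18 cm (1- to 4-leaf stage) in peat-based medium were treated postemergence; compounds were formulated in non-phytotoxic solvent with surfactant. After 13–15 days in greenhouse, response was visually rated against controls, 0 (no effect) to 100 (complete control).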

[2] = test system: yellow nutsedge (Cyperus esculentus)
Procedure, shortened: as §1

[3] = test system: blackgrass (Alopecurus myosuroides)
Procedure, shortened: as §1

[4] = test system: downy bromegrass (Bromus tectorum)
Procedure, shortened: as §1

[5] = test system: Italian ryegrass (Lolium multiflorum)
Procedure, shortened: as §1

[6] = test system: lambsquarters (Chenopodium album)
Procedure, shortened: as §1

[7] = test system: bermudagrass (Cynodon dactylon)
Procedure, shortened: as §1

[8] = test system: Surinam grass (Brachiaria decumbens)
Procedure, shortened: as §1

[9] = test system: corn (Zea mays)
Procedure, shortened: as §1

[10] = test system: woolly cupgrass (Eriochloa villosa)
Procedure, shortened: as §1

[11] = test system: giant foxtail (Setaria faberii)
Procedure, shortened: as §1

[12] = test system: morningglory (Ipomoea coccinea)
Procedure, shortened: as §1

[13] = test system: green foxtail (Setaria viridis)
Procedure, shortened: as §1

[14] = 250 g ai/ha, Preemergence, 0 to 100 scale
[15] = Postemergence, 31 g ai/ha, scale 0 to 100 (0 no effect, 100 complete control)
[16] = Postemergence, 62 g ai/ha, scale 0 (no effect) to 100 (complete control), 13 to 15 days
[17] = Postemergence, 125 g ai/ha, visual rating after 13 to 15 days, scale 0 (no effect) to 100 (complete control)
[18] = Postemergence, 250 g ai/ha, scale 0 to 100
[19] = Preemergence, 31 g ai/ha, scale 0 to 100 (0 no effect, 100 complete control)
[20] = Preemergence, 62 g ai/ha, scale 0 to 100 (0 no effect, 100 complete control)
[21] = Preemergence, 125 g ai/ha, 0 to 100 scale

SMILES: O=C1CCCC(O)=C1C(=O)c1cnc(-c2ccccc2)n(-c2cccc(Br)c2)c1=O [Compound 38]
- Plant response rating, Crabgrass, Large [1, 14]: 100
- Plant response rating, Crabgrass, Large [1, 15]: 90
- Plant response rating, Crabgrass, Large [1, 16]: 90
- Plant response rating, Crabgrass, Large [1, 17]: 98
- Crabgrass, Large plant response rating [1, 18]: 100
- Plant response rating, Crabgrass, Large [1, 19]: 60
- Plant response rating, Crabgrass, Large [1, 20]: 90
- Crabgrass, Large plant response rating [1, 21]: 100
- Plant response rating, Nutsedge, Yellow [2, 14]: 80
- Plant response rating, Nutsedge, Yellow [2, 16]: 0
- Plant response rating, Nutsedge, Yellow [2, 17]: 15
- Plant response rating, Nutsedge, Yellow [2, 19]: 10
- Nutsedge, Yellow plant response rating [2, 21]: 70
- Plant response rating, Blackgrass [3, 14]: 40
- Plant response rating, Blackgrass [3, 15]: 5
- Plant response rating, Blackgrass [3, 16]: 15
- Plant response rating, Blackgrass [3, 17]: 15
- Blackgrass plant response rating [3, 18]: 40
- Plant response rating, Blackgrass [3, 19]: 0
- Plant response rating, Blackgrass [3, 20]: 5
- Blackgrass plant response rating [3, 21]: 30
- Plant response rating, Bromegrass, Downy [4, 14]: 40
- Plant response rating, Bromegrass, Downy [4, 15]: 50
- Plant response rating, Bromegrass, Downy [4, 16]: 70
- Plant response rating, Bromegrass, Downy [4, 17]: 85
- Bromegrass, Downy plant response rating [4, 18]: 85
- Plant response rating, Bromegrass, Downy [4, 19]: 0
- Plant response rating, Bromegrass, Downy [4, 20]: 0
- Bromegrass, Downy plant response rating [4, 21]: 5
- Plant response rating, Ryegrass, Italian [5, 14]: 40
- Plant response rating, Ryegrass, Italian [5, 16]: 50
- Plant response rating, Ryegrass, Italian [5, 17]: 60
- Plant response rating, Ryegrass, Italian [5, 19]: 0
- Ryegrass, Italian plant response rating [5, 21]: 5
- Plant response rating, Lambsquarters [6, 14]: 100
- Plant response rating, Lambsquarters [6, 16]: 95
- Plant response rating, Lambsquarters [6, 17]: 100
- Lambsquarters plant response rating [6, 18]: 100
- Plant response rating, Lambsquarters [6, 19]: 98
- Plant response rating, Lambsquarters [6, 20]: 98
- Lambsquarters plant response rating [6, 21]: 100
- Plant response rating, Bermudagrass [7, 14]: 100
- Plant response rating, Bermudagrass [7, 15]: 98
- Plant response rating, Bermudagrass [7, 16]: 100
- Plant response rating, Bermudagrass [7, 17]: 100
- Bermudagrass plant response rating [7, 18]: 100
- Plant response rating, Bermudagrass [7, 19]: 98
- Plant response rating, Bermudagrass [7, 20]: 100
- Bermudagrass plant response rating [7, 21]: 100
- Plant response rating, Surinam Grass [8, 14]: 80
- Plant response rating, Surinam Grass [8, 16]: 85
- Plant response rating, Surinam Grass [8, 17]: 90
- Plant response rating, Surinam Grass [8, 19]: 40
- Surinam Grass plant response rating [8, 21]: 65
- Plant response rating, Corn [9, 14]: 0
- Plant response rating, Corn [9, 15]: 55
- Plant response rating, Corn [9, 16]: 70
- Plant response rating, Corn [9, 17]: 75
- Corn plant response rating [9, 18]: 90
- Plant response rating, Corn [9, 19]: 0
- Plant response rating, Corn [9, 20]: 0
- Corn plant response rating [9, 21]: 0
- Plant response rating, Cupgrass, Woolly [10, 14]: 80
- Plant response rating, Cupgrass, Woolly [10, 15]: 80
- Plant response rating, Cupgrass, Woolly [10, 16]: 90
- Plant response rating, Cupgrass, Woolly [10, 17]: 95
- Cupgrass, Woolly plant response rating [10, 18]: 100
- Plant response rating, Cupgrass, Woolly [10, 19]: 0
- Plant response rating, Cupgrass, Woolly [10, 20]: 10
- Cupgrass, Woolly plant response rating [10, 21]: 60
- Plant response rating, Foxtail, Giant [11, 14]: 95
- Plant response rating, Foxtail, Giant [11, 15]: 95
- Plant response rating, Foxtail, Giant [11, 16]: 98
- Plant response rating, Foxtail, Giant [11, 17]: 100
- Foxtail, Giant plant response rating [11, 18]: 100
- Plant response rating, Foxtail, Giant [11, 19]: 0
- Plant response rating, Foxtail, Giant [11, 20]: 40
- Foxtail, Giant plant response rating [11, 21]: 80
- Plant response rating, Morningglory [12, 14]: 100
- Plant response rating, Morningglory [12, 16]: 70
- Plant response rating, Morningglory [12, 17]: 75
- Plant response rating, Morningglory [12, 19]: 0
- Plant response rating, Morningglory [12, 20]: 0
- Morningglory plant response rating [12, 21]: 0
- Plant response rating, Foxtail, Green [13, 14]: 100
- Plant response rating, Foxtail, Green [13, 15]: 85
- Plant response rating, Foxtail, Green [13, 16]: 90
- Plant response rating, Foxtail, Green [13, 17]: 95
- Foxtail, Green plant response rating [13, 18]: 95
- Plant response rating, Foxtail, Green [13, 19]: 20
- Plant response rating, Foxtail, Green [13, 20]: 30
- Foxtail, Green plant response rating [13, 21]: 85

Source: patent US8952024B2, “Herbicidal pyrimidone derivatives” (E I du Pont de Nemours and Company, priority 2009, dated 2015)
